Test results published in US9340819B2, “Method for detecting the presence of carbapenemase-producing bacteria in a sample” (priority 2011, dated 2016).
≈ marks a conversion by molar mass, not a printed value.

Columns and labels:
P. stuartii = experiment: MIC of carbapenem by Etest (Example 2); format: cell-based, Providencia stuartii; settings: P. stuartii NDM-1, n=1
Protocol: (§1) All strains had previously been characterized for their β-lactamase content at the molecular level. Minimum inhibitory concentration of carbapenem were determined using the Etest® (AB bioMérieux, Solna, Sweden) and results were recorded according to US guidelines (CLSI), as updated in 2011.

E. asburiae = experiment: MIC of carbapenem by Etest (Example 2); format: cell-based, Enterobacter asburiae; settings: E. asburiae IMI-2, n=1
Protocol: as §1

P. fluorescens = experiment: Susceptibility testing by Etest on Mueller-Hinton agar (Example 3); format: cell-based; settings: Pseudomonas fluorescens
Protocol: (§2) Susceptibility testing was performed using the Etest® (bioMérieux; La Balmes-les-Grottes, France) on Mueller-Hinton agar plates (Becton Dickinson, Le Pont de Chaix, France) at 37° C. and results were recorded according to US guidelines (CLSI), as updated in 2012. The breakpoints for imipenem, meropenem and doripenem are as follows; susceptibility (S)≦2, and resistance (R)≧8 μg/ml.

P. stutzeri = experiment: as above; format: cell-based; settings: Stutzerimonas stutzeri
Protocol: as §2

P. putida = experiment: as above; format: cell-based; settings: Pseudomonas putida
Protocol: as §2

E. sakazaki = experiment: MIC of carbapenem by Etest (Example 2); format: cell-based; settings: ESBL + decreased membrane permeability; E. sakazaki CTX-M-15, n=1
Protocol: as §1

K. ozonae = experiment: MIC of carbapenem by Etest (Example 2); format: cell-based; settings: K. ozonae KPC-3, n=1
Protocol: as §1

Salmonella spp. = experiment: MIC of carbapenem by Etest (Example 2); format: cell-based; settings: Salmonella spp. KPC-2, n=1
Protocol: as §1

M. morganii = experiment: MIC of carbapenem by Etest (Example 2); format: cell-based, Morganella morganii; settings: Plasmid mediated AmpC or chromosomal AmpC + decreased membrane permeability; M. morganii Overexpressed cephalosporinase, n=2
Protocol: as §1

E. aerogenes = experiment: MIC of carbapenem by Etest (Example 2); format: cell-based, Enterobacter aerogenes
Protocol: as §1

K. pneumoniae = experiment: MIC of carbapenem by Etest (Example 2); format: cell-based, Klebsiella pneumoniae
Protocol: as §1

E. coli = experiment: MIC of carbapenem by Etest (Example 2); format: cell-based, Escherichia coli
Protocol: as §1

S. marcescens = experiment: MIC of carbapenem by Etest (Example 2); format: cell-based, Serratia marcescens
Protocol: as §1

C. freundii = experiment: MIC of carbapenem by Etest (Example 2); format: cell-based, Citrobacter freundii
Protocol: as §1

P. mirabilis = experiment: MIC of carbapenem by Etest (Example 2); format: cell-based, Proteus mirabilis; settings: Plasmid mediated AmpC or chromosomal AmpC + decreased membrane permeability; P. mirabilis ACC-1, n=1
Protocol: as §1

P. rettgeri = experiment: MIC of carbapenem by Etest (Example 2); format: cell-based, Proteus rettgeri
Protocol: as §1

E. cloacae = experiment: MIC of carbapenem by Etest (Example 2); format: cell-based, Enterobacter cloacae
Protocol: as §1

C[C@@H](O)[C@H]1C(=O)N2C(C(=O)O)=C(S[C@@H]3CN[C@H](C(=O)N(C)C)C3)[C@H](C)[C@H]12 [MER, meropenem]
MICs range (P. stuartii): 1.5 mg/L | MICs range (E. asburiae): >32 mg/L | MIC (P. fluorescens; P. fluorescens COU, VIM-2): > 32 ng/mL | MIC (P. fluorescens; P. fluorescens, BIC-1): 4 ng/mL (≈ 0.0104 µM) | MIC (P. stutzeri; P. stutzeri 13, DIM-1): > 32 ng/mL | MIC (P. stutzeri; P. stutzeri P511503100, VIM-2): > 32 ng/mL | MIC (P. stutzeri; P. stutzeri PB207, IMP-1): 4 ng/mL (≈ 0.0104 µM) | MIC (P. putida; CIP55, P. putida CIP 55-5, wild type, none): 3 ng/mL (≈ 0.00782 µM) | MIC (P. putida; P. putida 9335, VIM-2): > 32 ng/mL | MIC (P. putida; P. putida NTU 91/99, VIM-2): > 32 ng/mL | MIC (P. putida; P. putida NTU 92/99, IMP-1): 0.19 ng/mL (≈ 0.000495 µM) | MICs range (E. sakazaki): 0.25 mg/L | MICs range (K. ozonae): 2 mg/L | MICs range (Salmonella spp.): 0.25 mg/L | MICs range (M. morganii): 0.5 mg/L | MICs range (E. aerogenes; E. aerogenes KPC-2, n=1): 8 mg/L | MICs range (E. aerogenes; Plasmid mediated AmpC or chromosomal AmpC + decreased membrane permeability, E. aerogenes Overexpressed cephalosporinase, n=1): 0.75 mg/L | MICs range (K. pneumoniae; ESBL + decreased membrane permeability, K. pneumoniae SHV-2a, n=1): 0.38 mg/L | MICs range (K. pneumoniae; ESBL + decreased membrane permeability, K. pneumoniae SHV-28, n=1): 1 mg/L | MICs range (K. pneumoniae; ESBLs, K. pneumoniae CTX-M-3, n=1): 0.12 mg/L | MICs range (K. pneumoniae; ESBLs, K. pneumoniae CTX-M-14, n=1): 0.12 mg/L | MICs range (K. pneumoniae; ESBLs, K. pneumoniae CTX-M-15, n=3): 0.12 mg/L | MICs range (K. pneumoniae; K. pneumoniae IMP-1, n=5): 1 to 8 mg/L | MICs range (K. pneumoniae; K. pneumoniae IMP-8, n=2): 0.5 mg/L | MICs range (K. pneumoniae; K. pneumoniae KPC-3, n=3): 1 to 8 mg/L | MICs range (K. pneumoniae; K. pneumoniae NDM-4, n=1): >32 mg/L | MICs range (K. pneumoniae; K. pneumoniae OXA-181, n=2): 0.5 to 1 mg/L | MICs range (K. pneumoniae; K. pneumoniae VIM-19, n=1): 4 mg/L | MICs range (K. pneumoniae; Plasmid mediated AmpC or chromosomal AmpC + decreased membrane permeability, K. pneumoniae DHA-1, n=1): >32 mg/L | MICs range (K. pneumoniae; Plasmid mediated AmpC or chromosomal AmpC + decreased membrane permeability, K. pneumoniae DHA-2, n=1): 0.12 mg/L | MICs range (E. coli; E. coli IMP-1, n=2): 0.5 to 1 mg/L | MICs range (E. coli; E. coli IMP-8, n=1): 3 mg/L | MICs range (E. coli; E. coli KPC-2, n=5): 0.5 to 2 mg/L | MICs range (E. coli; E. coli NDM-1, n=7): 1 to 16 mg/L | MICs range (E. coli; E. coli OXA-48, n=6): 0.12 to 1 mg/L | MICs range (E. coli; E. coli VIM-1, n=2): 0.5 to 1 mg/L | MICs range (E. coli; E. coli VIM-2, n=2): 0.38 to 0.5 mg/L | MICs range (E. coli; E. coli VIM-19, n=1): 4 mg/L | MICs range (E. coli; ESBLs, E. coli CTX-M-1, n=1): 0.12 mg/L | MICs range (E. coli; ESBLs, E. coli CTX-M-3, n=1): 0.12 mg/L | MICs range (E. coli; ESBLs, E. coli CTX-M-14, n=2): 0.12 mg/L | MICs range (E. coli; ESBLs, E. coli CTX-M-15, n=2): 0.12 mg/L | MICs range (E. coli; ESBLs, E. coli VEB-1, n=1): 0.12 mg/L | MICs range (E. coli; Plasmid mediated AmpC or chromosomal AmpC + decreased membrane permeability, E. coli ACC-1, n=1): 0.12 mg/L | MICs range (E. coli; Plasmid mediated AmpC or chromosomal AmpC + decreased membrane permeability, E. coli CMY-2, n=1): 0.12 mg/L | MICs range (E. coli; Plasmid mediated AmpC or chromosomal AmpC + decreased membrane permeability, E. coli CMY-10, n=1): 0.12 mg/L | MICs range (E. coli; Plasmid mediated AmpC or chromosomal AmpC + decreased membrane permeability, E. coli DHA-1, n=1): 0.12 mg/L | MICs range (E. coli; Plasmid mediated AmpC or chromosomal AmpC + decreased membrane permeability, E. coli Extended spectrum cephalosporinase, n=1): 0.12 mg/L | MICs range (E. coli; Plasmid mediated AmpC or chromosomal AmpC + decreased membrane permeability, E. coli Overexpressed cephalosporinase, n=1): 2 mg/L | MICs range (S. marcescens; S. marcescens IMP-11, n=1): 2 mg/L | MICs range (S. marcescens; S. marcescens KPC-2, n=2): >32 mg/L | MICs range (S. marcescens; S. marcescens SME-1, n=1): 12 mg/L | MICs range (S. marcescens; S. marcescens SME-2, n=1): 12 mg/L | MICs range (S. marcescens; S. marcescens VIM-2, n=1): >32 mg/L | MICs range (C. freundii; C. freundii KPC-2, n=2): 1.5 to 3 mg/L | MICs range (C. freundii; C. freundii NDM-1, n=1): >32 mg/L | MICs range (C. freundii; ESBL + decreased membrane permeability, C. freundii TEM-3, n=1): 1 mg/L | MICs range (P. mirabilis): 0.12 mg/L | MICs range (P. rettgeri; P. rettgeri NDM-1, n=1): 1.5 mg/L | MICs range (P. rettgeri; P. rettgeri OXA-181, n=1): 2 mg/L | MICs range (E. cloacae; E. cloacae GES-5, n=1): >32 mg/L | MICs range (E. cloacae; E. cloacae IMP-8, n=2): 0.5 to 1 mg/L | MICs range (E. cloacae; E. cloacae KPC-2, n=7): 0.75 to 16 mg/L | MICs range (E. cloacae; E. cloacae NDM-1, n=1): 2 mg/L | MICs range (E. cloacae; E. cloacae NMC-A, n=1): 16 mg/L | MICs range (E. cloacae; E. cloacae OXA-48, n=3): 0.5 to 1.5 mg/L | MICs range (E. cloacae; ESBLs, E. cloacae CTX-M-15, n=3): 0.12 mg/L | MICs range (E. cloacae; ESBLs, E. cloacae VEB-1, n=1): 0.12 mg/L
